Measured values reported in patent publication US9228991B2, “Methods and kits for detection of drugs” (RAMOT AT TEL-AVIV UNIVERSITY LTD., priority 2010, dated 2016).
Where two headings read alike, the source gives them in different places.

Key:
[1] = cited from earlier work
[2] = GHB solubility / precipitation in anti-solvents
[3] = cited from earlier work; remark: listed apart in the source

| SMILES | Physical Effect ([1]; GHB dose 4-8 (very high), 4-8% in drink) | dose at which a dangerous overdose can occur ([1]; depending on body weight and metabolism) | heavy dose ([1]; in vivo) | solubility in anti-solvent ([2]; acetonitrile) | solubility in anti-solvent ([2]; pure ethanol) | Physical Effect ([3]; ketamine dose 10-80 mg (low), <0.01-0.08% in drink) | Physical Effect ([3]; ketamine dose 130-250 mg (high), 0.13-0.25% in drink) | Physical Effect ([3]; ketamine dose >250 mg (mega), >0.25% in drink) |
| --- | --- | --- | --- | --- | --- | --- | --- | --- |
| O=C(O)CCCO [GHB, gamma-hydroxybutyrate] | Powerful deep sleep. | two | approximately 2.5 grams | mostly insoluble | mostly insoluble |  |  |  |
| CNC1(c2ccccc2Cl)CCCCC1=O (centres unmarked) [ketamine] |  |  |  |  |  | Mild euphoria | K-hole, near comatose state | Powerful deep sleep. |
